Where “and” joins values, the source holds several entries; their conditions need not be identical. Equal values may be shown once. Read-outs that look alike come from different tables or passages of the source.

This assay concerns the target T1, canine TRPM8 (Canis lupus familiaris, UniProt Q1A7N1).
T1 construct: expressed in transfected cells
In words: In vitro canine TRPM8 functional assay (Ca2+-sensitive dye, FLIPR/FDSS, icilin activation). In kind it is cell-based. As to conditions: HEK293 cells expressing canine TRPM8, icilin activation; for IC50: eight-point dose-response; for % I (1 μM): 1 μM compound; for % I (5 μM): 5 μM compound. A digest of the protocol:
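HEK293 cells stably expressing canine TRPM8, loaded with Calcium 3 dye, preincubated with compound for 5 min before icilin at a concentration giving ~80% maximal response. Ca2+ fluorescence by FLIPR or FDSS; basal-subtracted, normalized to % maximal response, quadruplicate wells, sigmoidal fit for EC50/IC50.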

Setting [1] is: HEK293, read-out: % I (1 μM), 1 μM compound.
The mark [2] stands for this setting: HEK293, 1 μM compound, read-out: % I (1 μM).

T1 sequence (Q1A7N1 1-1104): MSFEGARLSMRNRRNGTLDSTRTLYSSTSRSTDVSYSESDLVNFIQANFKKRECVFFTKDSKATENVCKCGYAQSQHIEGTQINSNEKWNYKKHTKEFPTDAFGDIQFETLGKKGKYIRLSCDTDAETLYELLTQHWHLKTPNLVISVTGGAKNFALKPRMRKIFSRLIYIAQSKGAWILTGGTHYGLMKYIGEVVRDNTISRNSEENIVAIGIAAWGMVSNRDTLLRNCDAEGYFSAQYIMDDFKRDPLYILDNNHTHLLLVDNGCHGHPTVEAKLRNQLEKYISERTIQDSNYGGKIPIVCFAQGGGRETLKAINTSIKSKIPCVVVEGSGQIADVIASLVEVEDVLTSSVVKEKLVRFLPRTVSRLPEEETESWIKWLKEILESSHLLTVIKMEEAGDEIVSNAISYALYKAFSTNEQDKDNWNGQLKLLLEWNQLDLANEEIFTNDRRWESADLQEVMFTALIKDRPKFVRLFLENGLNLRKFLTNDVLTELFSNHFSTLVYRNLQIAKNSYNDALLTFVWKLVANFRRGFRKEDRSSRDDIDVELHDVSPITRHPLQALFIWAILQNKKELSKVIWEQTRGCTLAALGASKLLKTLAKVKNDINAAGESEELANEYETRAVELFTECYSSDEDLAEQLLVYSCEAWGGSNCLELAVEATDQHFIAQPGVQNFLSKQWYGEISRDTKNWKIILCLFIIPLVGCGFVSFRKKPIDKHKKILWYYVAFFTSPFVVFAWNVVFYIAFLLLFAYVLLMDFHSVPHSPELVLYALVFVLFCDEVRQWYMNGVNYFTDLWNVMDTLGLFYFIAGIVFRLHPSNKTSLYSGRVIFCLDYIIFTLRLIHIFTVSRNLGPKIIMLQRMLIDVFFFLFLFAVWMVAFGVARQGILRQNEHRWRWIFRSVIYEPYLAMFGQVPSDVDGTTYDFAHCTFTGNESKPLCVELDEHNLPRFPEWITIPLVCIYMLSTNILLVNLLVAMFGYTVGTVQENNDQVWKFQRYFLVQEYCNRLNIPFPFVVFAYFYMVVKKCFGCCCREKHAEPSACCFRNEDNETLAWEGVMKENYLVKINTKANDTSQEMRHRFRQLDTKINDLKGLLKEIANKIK

One may read the IC50 as the concentration that gives 50% inhibition. Take `CCOP(=O)(OCC)C(Cc1ccc(Cl)c(Cl)c1)c1cc2ccccc2s1` (centres unmarked) [Cpd 78, [1-Benzo[b]thiophen-2-yl-2-(3,4-dichloro-phenyl)-ethyl]-phosphonic acid diethyl ester]: the inhibition at 1 µM under setting [1] came to 95%. The concentration for half-maximal inhibition (IC50) (IC50 (μM)) is 0.43 µM.

With `CCOP(=O)(OCC)C(C)(Cc1ccc(F)c(F)c1)c1sc2ccccc2c1C` (centres unmarked) [Cpd 79, [2-(3,4-Difluoro-phenyl)-1-methyl-1-(3-methyl-benzo[b]-thiophen-2-yl)-ethyl]-phosphonic acid diethyl ester], the inhibition at 1 µM under setting [1] amounted to 88%. For the setting “IC50 (μM)”, this compound showed an IC50 of 0.43 µM.

In the case of `CCOP(=O)(OCC)C(Cc1ccccc1F)c1cc2ccccc2s1` (centres unmarked) [Cpd 80], the “% I (1 μM)” value was determined as 93% and the “% I (5 μM)” value is reported as 100%. Further, for the setting “read-out: IC50”, the concentration for half-maximal inhibition (IC50) was determined as 0.43 µM.

With `CCOP(=O)(OCC)C(Cc1cccc(C(F)(F)F)c1Cl)c1sc2ccccc2c1C` (centres unmarked) [Cpd 81], the “% I (1 μM)” value was 100% and 87%. The half-inhibitory concentration (IC50) (read-out: IC50) was 0.44 µM and 0.61 µM.

In the case of `CCOP(=O)(OCC)C(Cc1ccc(F)c(F)c1)c1sc2cc(OC)ccc2c1C` (centres unmarked) [Cpd 82, [2-(3,4-Difluoro-phenyl)-1-[6-methoxy-3-methyl-benzo[b]thiophene-2-yl)-ethyl]-phosphonic acid diethyl ester], under setting [1], the inhibition at 1 µM stood at 87%. Besides, the IC50 (IC50 (μM)) amounted to 0.44 µM.

With `CCOP(=O)(OCC)C(Cc1ccc2ccccc2c1)c1cc2ccccc2s1` (centres unmarked) [Cpd 83], the “% I (1 μM)” value came out at 84%. Further, under “read-out: IC50”, the IC50 turned out to be 0.45 µM.

For `CCOP(=O)(OCC)C(Cc1ccc(F)c(F)c1)c1sc2cccc(C(F)(F)F)c2c1C` (centres unmarked) [Cpd 84], under setting [1], the inhibition at 1 µM is 97%. The compound further yielded an IC50 (IC50 (μM)) of 0.46 µM.

In the case of `CCOP(=O)(OCC)C(Cc1ccccc1Cl)c1cc2ccccc2s1` (centres unmarked) [Cpd 85], the “% I (1 μM)” value is listed as 90% and the “% I (5 μM)” value is 100%. Besides, the concentration for half-maximal inhibition (IC50) (read-out: IC50) is 0.48 µM.

Consider `CCOP(=O)(OCC)C(Cc1ccccc1F)c1csc2ccccc12` (centres unmarked) [Cpd 86], for which the “% I (5 μM)” value stood at 101%. Further, the IC50 (read-out: IC50) came to 0.5 µM.

In the case of `CCOP(=O)(OCC)C(Cc1ccc(F)c(F)c1)C1=C(C)c2ccccc2S1(=O)=O` (centres unmarked) [Cpd 88, [2-(3,4-Difluoro-phenyl)-1-(3-methyl-1,1-dioxo-1H-1λ^6-benzo-[b]thiophen-2-yl)-ethyl]-phosphonic acid diethyl ester], the inhibition at 1 µM under setting [1] was found to be 80%. The concentration for half-maximal inhibition (IC50) (IC50 (μM)) was 0.5 µM and 0.54 µM.

As for `CCOP(=O)(OCC)C(Cc1ccccc1C)c1cc2ccccc2s1` (centres unmarked) [Cpd 89], the “% I (1 μM)” value is 91% and the “% I (5 μM)” value stood at 100%. The IC50 (read-out: IC50) came to 0.52 µM.

As to `CCOP(=O)(OCC)C(Cc1cc2ccccc2s1)c1cc2ccccc2s1` (centres unmarked) [Cpd 90], the “% I (1 μM)” value is listed as 89%. The IC50 (read-out: IC50) came out at 0.54 µM.

Take `Cc1c(C(Cc2ccc(F)c(F)c2)P(=O)(OC(C)C)OC(C)C)sc2ccc(Cl)cc12` (centres unmarked) [Cpd 92, [1-(5-Chloro-3-methyl-benzo[b]thiophen-2-yl)-2-(3,4-difluoro-phenyl)-ethyl]-phosphonic acid diisopropyl ester]: the inhibition at 1 µM under setting [2] was determined as 91%. Besides, the IC50 (read-out: IC50) came to 0.58 µM.

With `CC(C)OP(=O)(OC(C)C)C(Br)(Cc1ccc(F)c(F)c1)c1sc2ccccc2c1Br` (centres unmarked) [Cpd 93, [1-Bromo-1-(3-bromo-benzo[b]thiophen-2-yl)-2-(3,4-difluoro-phenyl)-ethyl]-phosphonic acid diisopropyl ester], the inhibition at 1 µM under setting [2] came out at 80%. Besides, the IC50 (read-out: IC50) worked out at 0.58 µM.

Turning to `CCOP(=O)(Cc1cc2ccccc2s1)OCc1c(Cl)cccc1Cl` (centres unmarked) [Cpd 94, Benzo[b]thiophen-2-ylmethyl-phosphonic acid 2,6-dichloro-benzyl ester ethyl ester], the “% I (5 μM)” value was determined as 98%. The inhibition at 1 µM under setting [1] was 79%. In addition, the half-maximal inhibitory concentration (IC50) (IC50 (μM)) turned out to be 0.6 µM.

As to `CCOP(=O)(OCC)C(Cc1c(Cl)cccc1Cl)c1cc2ccccc2s1` (centres unmarked) [Cpd 95], the “% I (1 μM)” value was found to be 89% and the “% I (5 μM)” value is 100%. Further, under “read-out: IC50”, the 50% inhibitory concentration (IC50) was 0.6 µM.

Take `CCOP(=O)(OCC)C(Cc1cc(C(F)(F)F)cc(C(F)(F)F)c1)c1cc2ccccc2s1` (centres unmarked) [Cpd 96]: the “% I (1 μM)” value is 92%. Also, the IC50 (read-out: IC50) came out at 0.64 µM.

For `CCOP(=O)(OCC)C(Cc1ccc(F)cc1Cl)c1cc2ccccc2s1` (centres unmarked) [Cpd 98], the “% I (1 μM)” value worked out at 79%. Moreover, under “read-out: IC50”, the half-maximal inhibitory concentration (IC50) came out at 0.71 µM.

Regarding `CCOP(=O)(OCC)C(Cc1cc(C(F)(F)F)ccc1Cl)c1sc2ccccc2c1C` (centres unmarked) [Cpd 99], the “% I (1 μM)” value came out at 100%. Moreover, the half-inhibitory concentration (IC50) (read-out: IC50) is 0.72 µM.

Turning to `CCOP(=O)(OCC)C(Cc1cccc(Cl)c1Cl)c1cc2ccccc2s1` (centres unmarked) [Cpd 100], the “% I (1 μM)” value is reported as 82%. The IC50 (read-out: IC50) was 0.73 µM.

With `Cc1c(C(Cc2ccc(F)c(F)c2)P(=O)(OC2CCCCC2)OC2CCCCC2)sc2ccccc12` (centres unmarked) [Cpd 101, [2-(3,4-Difluoro-phenyl)-1-(3-methyl-benzo[b]thiophen-2-yl)-ethyl]-phosphonic acid dicyclohexyl ester], the inhibition at 1 µM under setting [2] is 55%. For the same compound, the 50% inhibitory concentration (IC50) (read-out: IC50) amounted to 0.75 µM.

As for `CCOP(=O)(OCC)C(Cc1ccccc1C(F)(F)F)c1cc2ccccc2s1` (centres unmarked) [Cpd 102], the “% I (1 μM)” value was found to be 86%. Also, the half-inhibitory concentration (IC50) (read-out: IC50) is 0.75 µM.

Regarding `CCOP(=O)(OCCN(C)C)C(Cc1ccc(F)c(F)c1)c1sc2ccccc2c1C` (centres unmarked) [Cpd 103, [2-(3,4-Difluoro-phenyl)-1-(3-methyl-benzo[b]thiophen-2-yl)-ethyl]-phosphonic acid 2-dimethylamino-ethyl ester ethyl ester], the inhibition at 1 µM under setting [1] was determined as 60%. Besides, where the note is “IC50 (μM)”, the IC50 worked out at 0.93 µM.

As for `CCOP(=O)(Cc1cc2ccccc2s1)OCc1ccccc1C` (centres unmarked) [Cpd 104, Benzo[b]thiophen-2-ylmethyl-phosphonic acid ethyl ester 2-methyl-benzyl ester], the “% I (5 μM)” value worked out at 99%. In addition, under setting [1], the inhibition at 1 µM is 53%. The midpoint of inhibition (IC50 (μM)), the IC50, lay at 0.96 µM.

Take `CCOP(=O)(Cc1cc2ccccc2s1)OCc1ccc(F)cc1` (centres unmarked) [Cpd 107]: the “% I (5 μM)” value amounted to 99%. In addition, the IC50 (read-out: IC50) came out at 1.3 µM.

Regarding `CCOP(=O)(Cc1cc2ccccc2s1)OCc1ccccc1F` (centres unmarked) [Cpd 109, Benzo[b]thiophen-2-ylmethyl-phosphonic acid ethyl ester 2-fluoro-benzyl ester], the “% I (5 μM)” value worked out at 98%. Further, the inhibition at 1 µM under setting [1] was 17%. This compound also returned an IC50 (IC50 (μM)) of 1.47 µM.

Regarding `CCOP(=O)(Cc1cc2ccccc2s1)OCc1ccccc1Br` (centres unmarked) [Cpd 110], the “% I (1 μM)” value is reported as 11% and the “% I (5 μM)” value was determined as 96%. Further, for the setting “read-out: IC50”, the 50% inhibitory concentration (IC50) came to 2.32 µM.

For the compound `CCOP(=O)(Cc1cc2ccccc2s1)OCc1ccccc1` (centres unmarked) [Cpd 111], the “% I (1 μM)” value is given as 14%.

Regarding `CCOP(=O)(OCC)C(Cc1cc2c(cc1Cl)OCO2)c1cc2ccccc2s1` (centres unmarked) [Cpd 112], the “% I (1 μM)” value is reported as 42%.

For the compound `CCOP(=O)(OCC)C(Cc1cc(C(F)(F)F)ccc1C(F)(F)F)c1sc2ccccc2c1C` (centres unmarked) [Cpd 113], the “% I (1 μM)” value was 25%.

`CCOP(=O)(OCC)C(Cc1ccccc1F)c1sc2ccccc2c1CN(C)C` (centres unmarked) [Cpd 114, [1-(3-Dimethylaminomethyl-benzo[b]thiophen-2-yl)-2-(2-fluoro-phenyl)-ethyl]-phosphonic acid diethyl ester]: the inhibition at 1 µM under setting [1] worked out at 15%.

`CCOP(=O)(OCC)C(Cc1ccccc1-c1ccccc1)c1sc2ccccc2c1C` (centres unmarked) [Cpd 115]: the “% I (1 μM)” value is reported as 69%.

For `CCOP(=O)(OCC)C(Cc1ccc(F)c(F)c1)c1sc2c(C(F)(F)F)cccc2c1C` (centres unmarked) [Cpd 116], the “% I (1 μM)” value is given as 64%.
